{"source": "patent US20100086519A1", "about": "“Treatment of Hepatitis C Infection With Metalloporphyrins” (The Charlotte-Mecklenburg Hospital Authority d/b/a …, priority 2008, published 2010)", "key": {"HCV NS5A protein [1]": {"target": "T1, HCV NS5A protein (Hepatitis C virus genotype 1b, UniProt Q9WMX2)", "T1 sequence (Q9WMX2 1973-2419)": "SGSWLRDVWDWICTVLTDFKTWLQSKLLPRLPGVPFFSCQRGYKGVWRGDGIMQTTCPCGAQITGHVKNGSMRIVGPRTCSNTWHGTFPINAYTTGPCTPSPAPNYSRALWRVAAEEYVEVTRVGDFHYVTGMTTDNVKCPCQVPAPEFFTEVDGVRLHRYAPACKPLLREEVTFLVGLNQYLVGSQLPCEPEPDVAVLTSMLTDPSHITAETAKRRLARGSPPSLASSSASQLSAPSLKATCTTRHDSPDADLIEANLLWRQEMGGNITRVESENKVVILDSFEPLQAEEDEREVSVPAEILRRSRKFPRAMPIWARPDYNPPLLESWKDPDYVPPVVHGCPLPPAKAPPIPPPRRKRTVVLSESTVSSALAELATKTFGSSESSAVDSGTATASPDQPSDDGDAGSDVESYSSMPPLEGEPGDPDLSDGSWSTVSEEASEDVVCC", "assay": "NS5A protein levels by Western blot in 9-13 cells", "assay_type": "cell-based", "set-up": "processed into structural (C, E1, E2) and nonstructural (NS2, NS3, NS4A, NS4B, NS5A and NS5B) proteins; expressed in transfected cells; host or cells: 9-13 cells (human hepatoma cells with a replicating HCV NS3-NS5B region)", "conditions": "9-13 cells; for NS5A protein levels, proteasome inhibitor alone: absence of ZnMP, FIG. 5C; for effect on degradation of NS5A by ZnMP 5 μM: epoxomicin 5, 10 μM or MG132 10, 20 μM 30 min before ZnMP 5 μM; for effect on degradation of NS5A by ZnMP 5 μM / effect on degradation of NS5A by ZnMP 10 μM / NS5A protein levels: 4 hours; for effect on degradation of NS5A by ZnMP 10 μM: epoxomicin 5, 10 μM or MG132 10, 20 μM 30 min before ZnMP 10 μM; for NS5A protein levels: 10 μM, FIG. 2A", "text": "Bartenschlager (University of Heidelberg, Heidelberg, Germany).\nBiochim Biophys Acta 2008; 1779:195-203."}, "Bach1": {"target": "T2, Bach1 (Mus musculus, UniProt P97302)", "T2 construct": "host or cells: NIH 3T3 cells", "T2 sequence (P97302 1-739)": "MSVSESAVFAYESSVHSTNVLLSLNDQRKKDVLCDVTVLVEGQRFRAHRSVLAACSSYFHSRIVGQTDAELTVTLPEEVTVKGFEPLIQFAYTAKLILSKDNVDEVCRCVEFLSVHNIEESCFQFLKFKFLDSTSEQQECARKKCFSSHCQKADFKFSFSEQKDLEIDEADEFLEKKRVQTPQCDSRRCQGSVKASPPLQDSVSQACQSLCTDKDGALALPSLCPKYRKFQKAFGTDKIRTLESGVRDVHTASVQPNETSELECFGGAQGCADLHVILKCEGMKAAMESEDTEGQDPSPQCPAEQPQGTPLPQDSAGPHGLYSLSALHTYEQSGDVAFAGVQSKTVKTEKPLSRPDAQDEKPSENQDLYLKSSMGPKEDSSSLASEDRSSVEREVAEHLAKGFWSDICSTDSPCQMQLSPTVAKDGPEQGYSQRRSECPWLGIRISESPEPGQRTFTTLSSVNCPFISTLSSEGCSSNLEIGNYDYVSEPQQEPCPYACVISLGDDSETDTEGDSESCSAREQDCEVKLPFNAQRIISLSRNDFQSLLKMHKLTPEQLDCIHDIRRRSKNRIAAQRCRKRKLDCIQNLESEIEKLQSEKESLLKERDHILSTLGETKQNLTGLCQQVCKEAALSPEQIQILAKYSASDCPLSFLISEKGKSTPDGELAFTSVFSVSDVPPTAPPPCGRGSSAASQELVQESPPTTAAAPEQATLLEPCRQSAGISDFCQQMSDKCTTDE", "conditions": "NIH 3T3 cells; cited from earlier work"}, "HO-1 gene": {"system": "HO-1 gene", "conditions": "NIH 3T3 cells; cited from earlier work"}, "9-13 cells": {"system": "9-13 cells", "assay": "growth of cells exposed to proteasome inhibitor", "assay_type": "cell-based, human", "conditions": "20 μM"}, "HCV NS5A protein [2]": {"target": "T1, HCV NS5A protein", "assay": "polyubiquitination of NS5A by immunoprecipitation and immunoblot in 9-13 cells", "assay_type": "cell-based", "set-up": "processed into structural (C, E1, E2) and nonstructural (NS2, NS3, NS4A, NS4B, NS5A and NS5B) proteins; expressed in transfected cells; host or cells: 9-13 cells (human hepatoma cells with a replicating HCV NS3-NS5B region)", "description": "Immunoprecipitation was carried out according to the Manufacturer's protocol. Briefly, cells were harvested in cold radioimmunoprecipitation assay (RIPA) buffer (50 mM Tris-HC1 [pH 7.4], 150 mM NaCl, 1 mM EDTA, 0.25% sodium deoxycholate, 1% IGEPAL CA-630, 1 mM PMSF, 1 mM NaF, 1 mM Na3VO4 and 1 μg/ml each of aprotinin, leupeptin, and pepstatin). The samples were pre-cleared with Protein A/G Agarose for 10 min at 4° C. and subsequently incubated while gently rotating at 4° C. overnight with primary antibody, followed by Protein A/G beads for 1 h at 4° C. Beads were spun down and washed twice with RIPA buffer. Protein samples were separated by electrophoresis on 4-15% SDS-PAGE gels, and transferred to PVDF membrane, conjugated ubiquitin was detected as described for Western blot analysis using anti-ubiquitin antibody.\nThis Example investigates whether ZnMP induces polyubquitination of NS5A to gain insight into the mechanism by which ZnMP mediates degradation of NS5A protein. 9-13 cells were treated without or with 10 μM ZnMP for 4 h. Total proteins were extracted for subsequent Western blot or immunoprecipitation analysis. Immunoprecipitation was carried out using anti-HCV NS5A antibody. Ubiquitin conjugation of NS5A [polyubiquitinated NS5A (Ub)n-NS5A]was examined with immunoprecipitation using an anti-HCV NS5A antibody and immunoblot using an anti-ubiquitin antibody. […] In FIG. 6B, ubiquitination of NS5A following ZnMP treatment, or vehicle (DMSO) only was compared. The positions of molecular mass markers (in kilodaltons) are indicated to the left of the gel. The bracket indicates polyubiquitinated NS5A. Asterisks indicate cross-reacting immunoglobulin heavy chain. […] These bands may represent polyubiquitinated NS5A."}, "HCV": {"system": "HCV", "assay": "anti-viral activity (summary statement)", "assay_type": "cell-based, hepatitis C virus"}}, "note": "Where a SMILES comes first, the peptide text is derived from it. The star is where a group is joined. Cbz = O=C(OCc1ccccc1)*"}
{"compound": "Tin mesoporphyrin [SnMP]", "values": [{"measurement": "NS5A protein levels, time course", "setting": "HCV NS5A protein [1]; 10 μM, 0, 2, 4, 6 h, FIG. 2B", "value": "no detectable effects"}, {"measurement": "Bach1 protein levels", "setting": "Bach1", "value": "down-regulate"}, {"measurement": "HO-1 gene expression", "setting": "HO-1 gene", "value": "induce"}]}
{"compound": "CC[C@H](C)[C@H](NC(=O)[C@H]([C@@H](C)CC)N(C)C(C)=O)C(=O)N[C@H](C(=O)N[C@@H](CC(C)C)C(=O)[C@@]1(C)CO1)[C@@H](C)O", "note": "[epoxomicin]", "values": [{"measurement": "NS5A protein levels, proteasome inhibitor alone", "setting": "HCV NS5A protein [1]", "value": "did not affect"}, {"measurement": "effect on degradation of NS5A by ZnMP 5 μM", "setting": "HCV NS5A protein [1]", "value": "completely abrogated"}, {"measurement": "effect on degradation of NS5A by ZnMP 10 μM", "setting": "HCV NS5A protein [1]", "value": "significant reversal"}, {"measurement": "toxicity to the cells (cell growth)", "setting": "9-13 cells", "value": "toxic"}]}
{"compound": "C=CC1=C(C)c2cc3[n-]c(cc4nc(cc5[n-]c(cc1n2)c(C)c5C=C)C(C)=C4CCC(=O)O)c(CCC(=O)O)c3C.[Zn+2]", "note": "[ZnPP, Zinc protoporphyrin]", "values": [{"measurement": "polyubquitination of NS5A (summary statement)", "setting": "HCV NS5A protein [2]", "value": "induce polyubquitination"}, {"measurement": "anti-viral activity (summary statement)", "setting": "HCV", "value": "display anti-viral activity"}]}
{"compound": "c1ccc(CN(CCN(Cc2ccccn2)Cc2ccccn2)Cc2ccccn2)nc1", "note": "[TEPN, N, N, N, N-tetrakis-(2-pyridylmethyl) ethylenediamine]", "values": [{"measurement": "effect on ZnMP-mediated down-regulation of NS5A protein levels", "setting": "HCV NS5A protein [1]; chelator 30 min before ZnMP, then 4 h, FIG. 3", "value": "did not affect"}]}
{"compound": "mesoporphyrin", "values": [{"measurement": "NS5A protein levels", "setting": "HCV NS5A protein [1]", "value": "not affected"}]}
{"compound": "CC(C)C[C@@H](C=O)NC(=O)[C@H](CC(C)C)NC(=O)[C@H](CC(C)C)NC(=O)OCc1ccccc1", "note": "[MG132] (Cbz-Leu-Leu-Leu-aldehyde)", "values": [{"measurement": "NS5A protein levels, proteasome inhibitor alone", "setting": "HCV NS5A protein [1]", "value": "did not affect"}, {"measurement": "effect on degradation of NS5A by ZnMP 5 μM", "setting": "HCV NS5A protein [1]", "value": "completely abrogated"}, {"measurement": "effect on degradation of NS5A by ZnMP 10 μM", "setting": "HCV NS5A protein [1]", "value": "significant reversal"}]}
{"compound": "[Cl-].[Cl-].[Zn+2]", "note": "[ZnCl2, zinc chloride]", "values": [{"measurement": "NS5A protein levels", "setting": "HCV NS5A protein [1]", "value": "not affected"}]}
